According to PubChem BioAssay AID2060490 (Molecular Pharmacology Branch, DTP, NCI, 2025):
pIC50: −log10 of the molar value.

Test system: 885512-296-R-J2-PDC complex spheroid viability
Assay: Anticancer human tumor 885512-296-R-J2-PDC patient-derived breast carcinoma cell line growth inhibition [GQUAD]
Settings: for pIC50: curve of first compound; for viability, T/C: stronger effect = lower value
Description: DNA G-quadruplex Stabilizer Agents in Combinations in Complex Spheroids
A high-throughput screen of multi-cell type tumor spheroids was designed to identify active combinations of DNA G-quadruplex stabilizer agents and targeted small molecules. Complex spheroids include a stromal component modeled by human endothelial cells (HUVEC) and fibroblasts modeled by human mesenchymal stem cells (MSCs). The concentration ranges selected for each drug and investigational agent were based upon clinically achievable concentrations if the clinical Cmax of the agent was known.
Compounds. The drugs and investigational agents: pidnarulex (CX-5461; NSC782164), APTO-253 (NSC789042), BRACO-19 (NSC847499), peposertib (NSC802822), ceralasertib (NSC780249), elimusertib (NSC800525), camonsertib (NSC841442), AZD-1390 (NSC803789), olaparib (NSC753686), talazoparib (NSC767125), ART-558 (NSC835418), sotorasib (NSC818433), MRTX-1133 (NSC836407), SN-38 (NSC673596), topotecan (NSC609699), etoposide (NSC141540), doxorubicin (NSC123127), gemcitabine (NSC613327), 5-fluorouracil (NSC19893), paclitaxel (NSC125973), vemurafenib (NSC761431), panobinostat (NSC761190), R-306465 (JNJ-16241199; NSC773264), adavosertib (NSC754352), TP-3654 (NSC805149), carboplatin (NSC241240), KSQ-4279 (NSC840948), and staurosporine (NSC755774) were obtained from the National Cancer Institute (NCI) Developmental Therapeutics Program Chemical Repository (34). The FDA-approved anticancer drug set is available from the NCI Developmental Therapeutics Program. […] The stock solutions were prepared in dimethyl sulfoxide (DMSO, Sigma-Aldrich, St. Louis, MO, cat. D2650) at 800-fold the tested concentration and stored at -70 degrees C prior to their use. All drugs and investigational agents were tested over a range starting from a high concentration at or near the clinical Cmax and decreasing in half-log increments. If the clinical Cmax for an agent had not been determined, the highest concentration tested was 10 microM.
2.3 Cell Culture. All cells were maintained in an incubator at 37 degrees C and 5% CO2 with 95% humidity. The PDC lines were cultured according to standard operating procedures established by the NCI PDMR. All PDCs were thawed and cultured in Matrigel-coated flasks prepared with a working solution of 1X Ham's F-12 nutrient mix, without supplementation (Invitrogen, cat. 11765054), 100 U/mL penicillin-streptomycin (Invitrogen, cat. 15140122), and 2.5% Matrigel (Corning Inc., cat. 354248) for the first three passages. The 857933-349-R-J2-PDC line was cultured in 6C/Colon 1B media, which includes advanced DMEM/F-12 (Thermo Fisher Scientific, cat. 12634028), 10 mM HEPES (Thermo Fisher Scientific, cat. 15630080), 1X GlutaMAX supplement (Thermo Fisher Scientific, cat. 35050061), 0.1 mg/mL primocin (InvivoGen, cat. ant-pm-2), 10% defined fetal bovine serum, heat inactivated (HyClone Laboratories Inc., cat. SH30070.03HI), 50% L-WRN conditioned media (ATCC, cat. CRL-3276), 1.25 mM N-Acetyl-L-cysteine (Sigma-Aldrich, cat. A9165), 10 mM nicotinamide (Sigma-Aldrich, cat. N0636), 1X B-27 supplement (Thermo Fisher Scientific, cat. 17504044), 1X N-2 supplement (Thermo Fisher Scientific, cat. 17502048), 10 microM Y-27632 dihydrochloride (Tocris Bioscience, cat. 1254), and 50 ng/mL human EGF recombinant protein (Thermo Fisher Scientific, cat. PHG0311). The 485176-168-R4-J1-PDC line was cultured in Panc media, which includes all 6C/Colon 1B media components plus 100 ng/mL human FGF-10 (Thermo Fisher Scientific, cat. 100-26), 500 nM SB-431542 (Selleckchem, cat. S1067), and gastrin (Tocris, cat. 3006).
[…]

[1] = second compound 0.0316 µM, first compound 0.0316 µM
[2] = second compound 0.0316 µM, first compound 0.1 µM
[3] = second compound 0.0316 µM, first compound 0.316 µM
[4] = second compound 0.0316 µM, first compound 1 µM
[5] = second compound 0.0316 µM, first compound 3.16 µM
[6] = second compound 0.0316 µM, first compound 10 µM
[7] = second compound 0.1 µM, first compound 0.0316 µM
[8] = second compound 0.1 µM, first compound 0.1 µM
[9] = second compound 0.1 µM, first compound 0.316 µM
[10] = second compound 0.1 µM, first compound 1 µM
[11] = second compound 0.1 µM, first compound 3.16 µM
[12] = second compound 0.1 µM, first compound 10 µM
[13] = second compound 0.316 µM, first compound 0.0316 µM
[14] = second compound 0.316 µM, first compound 0.1 µM
[15] = second compound 0.316 µM, first compound 0.316 µM
[16] = second compound 0.316 µM, first compound 1 µM
[17] = second compound 0.316 µM, first compound 3.16 µM
[18] = second compound 0.316 µM, first compound 10 µM
[19] = second compound 1 µM, first compound 0.0316 µM
[20] = second compound 1 µM, first compound 0.1 µM
[21] = second compound 1 µM, first compound 0.316 µM
[22] = second compound 1 µM, first compound 1 µM
[23] = second compound 1 µM, first compound 3.16 µM
[24] = second compound 1 µM, first compound 10 µM
[25] = second compound 3.16 µM, first compound 0.0316 µM
[26] = second compound 3.16 µM, first compound 0.1 µM
[27] = second compound 3.16 µM, first compound 0.316 µM
[28] = second compound 3.16 µM, first compound 1 µM
[29] = second compound 3.16 µM, first compound 3.16 µM
[30] = second compound 3.16 µM, first compound 10 µM
[31] = second compound 10 µM, first compound 0.0316 µM
[32] = second compound 10 µM, first compound 0.1 µM
[33] = second compound 10 µM, first compound 0.316 µM
[34] = second compound 10 µM, first compound 1 µM
[35] = second compound 10 µM, first compound 3.16 µM
[36] = second compound 10 µM, first compound 10 µM
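Note: spheroids exposed to the compounds for one week.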
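Throughout, for viability, T/C: percent of tumor spheroid viability relative to DMSO vehicle control wells.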

COc1cc(C2c3cc4c(cc3C(OC3OC5COC(C)OC5C(O)C3O)C3COC(=O)C23)OCO4)cc(OC)c1O (stereo unspecified) + CN(C)c1ccc(Nc2c3ccc(NC(=O)CCN4CCCC4)cc3nc3cc(NC(=O)CCN4CCCC4)ccc23)cc1
pIC50 (second compound 0.0316 µM): 6.23
pIC50 (second compound 0.1 µM): 6.19
pIC50 (second compound 0.316 µM): 6.23
pIC50 (second compound 1 µM): 6.24
pIC50 (second compound 3.16 µM): 6.21
pIC50 (second compound 10 µM): > 7.50
viability, T/C [1]: 106%
viability, T/C [2]: 96.7%
viability, T/C [3]: 73%
viability, T/C [4]: 30.5%
viability, T/C [5]: 13.4%
viability, T/C [6]: 8.11%
viability, T/C [7]: 106%
viability, T/C [8]: 94.4%
viability, T/C [9]: 77.1%
viability, T/C [10]: 33.1%
viability, T/C [11]: 13.5%
viability, T/C [12]: 9.28%
viability, T/C [13]: 100%
viability, T/C [14]: 111%
viability, T/C [15]: 73.3%
viability, T/C [16]: 28.8%
viability, T/C [17]: 13%
viability, T/C [18]: 7.51%
viability, T/C [19]: 88.4%
viability, T/C [20]: 97.5%
viability, T/C [21]: 72.5%
viability, T/C [22]: 28.2%
viability, T/C [23]: 13.1%
viability, T/C [24]: 7.5%
viability, T/C [25]: 88.5%
viability, T/C [26]: 83.8%
viability, T/C [27]: 78.8%
viability, T/C [28]: 28.8%
viability, T/C [29]: 14.4%
viability, T/C [30]: 10.3%
viability, T/C [31]: 18.7%
viability, T/C [32]: 24%
viability, T/C [33]: 22.1%
viability, T/C [34]: 11.4%
viability, T/C [35]: 10.1%
viability, T/C [36]: 8.35%

COc1cccc2c1C(=O)c1c(O)c3c(c(O)c1C2=O)CC(O)(C(=O)CO)CC3OC1CC(N)C(O)C(C)O1 (stereo unspecified) + CN(C)c1ccc(Nc2c3ccc(NC(=O)CCN4CCCC4)cc3nc3cc(NC(=O)CCN4CCCC4)ccc23)cc1
pIC50 (second compound 0.0316 µM): 7.16
pIC50 (second compound 0.1 µM): 7.14
pIC50 (second compound 0.316 µM): 7.10
pIC50 (second compound 1 µM): 7.12
pIC50 (second compound 3.16 µM): 7.15
pIC50 (second compound 10 µM): > 7.50
viability, T/C [1]: 83.5%
viability, T/C [2]: 29.8%
viability, T/C [3]: 23.5%
viability, T/C [4]: 6.89%
viability, T/C [5]: 0.38%
viability, T/C [6]: 3.01%
viability, T/C [7]: 90.9%
viability, T/C [8]: 31.5%
viability, T/C [9]: 18.5%
viability, T/C [10]: 8.24%
viability, T/C [11]: 1.04%
viability, T/C [12]: 2.8%
viability, T/C [13]: 95.3%
viability, T/C [14]: 35.2%
viability, T/C [15]: 20.9%
viability, T/C [16]: 7.15%
viability, T/C [17]: 1.27%
viability, T/C [18]: 3.37%
viability, T/C [19]: 95%
viability, T/C [20]: 30%
viability, T/C [21]: 26.1%
viability, T/C [22]: 8.92%
viability, T/C [23]: 0.75%
viability, T/C [24]: 3.6%
viability, T/C [25]: 81.5%
viability, T/C [26]: 34.8%
viability, T/C [27]: 18.1%
viability, T/C [28]: 8.3%
viability, T/C [29]: 3.01%
viability, T/C [30]: 2.07%
viability, T/C [31]: 26.5%
viability, T/C [32]: 20%
viability, T/C [33]: 9.35%
viability, T/C [34]: 5.9%
viability, T/C [35]: 0.9%
viability, T/C [36]: 1.52%

O=C(NO)c1cnc(N2CCN(S(=O)(=O)c3ccc4ccccc4c3)CC2)nc1 + CN(C)c1ccc(Nc2c3ccc(NC(=O)CCN4CCCC4)cc3nc3cc(NC(=O)CCN4CCCC4)ccc23)cc1
pIC50 (second compound 0.0316 µM): 6.87
pIC50 (second compound 0.1 µM): 6.80
pIC50 (second compound 0.316 µM): 6.82
pIC50 (second compound 1 µM): 6.83
pIC50 (second compound 3.16 µM): 7.00
pIC50 (second compound 10 µM): > 7.50
viability, T/C [1]: 89.6%
viability, T/C [2]: 61.1%
viability, T/C [3]: 20%
viability, T/C [4]: 3.35%
viability, T/C [5]: 0.33%
viability, T/C [6]: 0.17%
viability, T/C [7]: 90.8%
viability, T/C [8]: 67.4%
viability, T/C [9]: 25.1%
viability, T/C [10]: 3.87%
viability, T/C [11]: 0.15%
viability, T/C [12]: 0.11%
viability, T/C [13]: 84.1%
viability, T/C [14]: 63.9%
viability, T/C [15]: 25.8%
viability, T/C [16]: 3.96%
viability, T/C [17]: 0.19%
viability, T/C [18]: 0.24%
viability, T/C [19]: 74.8%
viability, T/C [20]: 65.2%
viability, T/C [21]: 21.4%
viability, T/C [22]: 5.44%
viability, T/C [23]: 0.13%
viability, T/C [24]: 0.56%
viability, T/C [25]: 60.2%
viability, T/C [26]: 50.6%
viability, T/C [27]: 21.1%
viability, T/C [28]: 5.9%
viability, T/C [29]: 0.29%
viability, T/C [30]: 0.11%
viability, T/C [31]: 15.4%
viability, T/C [32]: 15.4%
viability, T/C [33]: 9.93%
viability, T/C [34]: 3.09%
viability, T/C [35]: 0.66%
viability, T/C [36]: 0.31%
